{"source": "patent US4609640A", "about": "“Preparation having excellent absorption property” (priority 1981, dated 1986)", "conditions": "rat, in vivo", "method": "Subsequently, these samples were administered to Wistar-strain rats as shown below and quantities of Cephalothin disappeared by absorption were measured.\nIn the experiment, Wistar-strain male rats, weighing 250 to 300 g, were narcotized with pentobarbital (50 mg/kg) and thereafter subjected to hypoabdominal incision for a first cannulation at a position about 1.5 cm from the anus and also another cannulation at a position 5 cm above the first cannulation. Subsequently, the rectum was internally washed with about 20 ml of isotonic sodium chloride solution kept at 38° C., and each sample was circulated at a flow rate of 2 ml/minute for 5 minutes to make the concentration in the system constant. Then, 6 ml of each sample was circulated at a flow rate of 2 ml/minute, and samples each of 0.05 ml were collected at intervals of 10 minutes. Each sample was diluted and the quantity of Cephalothin disappeared was determined by UV-spectrophotometer or high-speed liquid chromatography.", "data": [{"substance": "pectinic acid", "values": [{"measurement": "absorption of Cephalothin", "result": "improves remarkably absorption of Cephalothin"}, {"measurement": "absorption of Cephalothin under hyper tonic conditions", "result": "further improvement"}]}]}
